Columns and labels:
[1] = system: blood coagulation factor; test: aPTT (activated partial thromboplastin time), blood coagulation factor inhibitory activity; format: biochemical; conditions: 1.5 mg/ml; coagulation time of sample added group / DMSO added group
Experimental: (§1) The blood coagulation inhibitory activity of Ganoderma lucidum fruiting body samples was evaluated according to the previously reported methods (Sohn et al., 2004. Kor. J. Pharmacogn 35. 52-61; Kwon et al., 2004. J Life Science, 14. 509-513; Ryu et al. 2010. J. Life Science, 20. 922-928). For this, thrombin time, prothrombin time and aPT time were measured. For plasma, commercially available control plasma (MD Pacific Technology Co., Ltd, Huayuan Industrial Area, China) was used, and thrombin time, prothrombin time, and aPT time measurements were performed in a manner described below.
aPTT (Activated Partial Thromboplastin Time)
100 μl of plasma and 10 μl of sample extracts of various concentrations were added to the tube of Amelung coagulometer KC-1A (Japan) and warmed at 37° C. for 3 minutes. 50 μl of aPTT reagent (Sigma, ALEXIN™) was added thereto and incubated at 37° C. for 3 minutes. 50 μl of CaCl2 (35 mM) was added, and the time until plasma coagulation was measured. As a solvent control, DMSO was used instead of the sample, and in this case, the coagulation time was 55.1 seconds. The aPTT was expressed with the average of the results of three or more repeated experiments, and the blood coagulation factor inhibitory activity was expressed as the value obtained by dividing the aPTT upon addition of the same by the aPTT time upon addition of the solvent control. […]

[2] = target: T1, thrombin (Homo sapiens, UniProt P00734); test: Thrombin time (plasma coagulation, thrombin inhibitory activity); format: biochemical; conditions: 1.5 mg/ml; coagulation time of sample added group / DMSO added group
T1 construct: 50 μl of 0.5 U thrombin (Sigma Co., USA); purchased Sigma Co., USA
Experimental: as §1
At 37° C., 50 μl of 0.5 U thrombin (Sigma Co., USA), 50 μl of 20 mM CaCl2, and 10 μl of sample extracts of various concentrations were mixed in the tube of Amelung coagulometer KC-1 A (Japan), and reacted for 2 minutes, followed by addition of 100 μl of plasma. After the addition of plasma, the time until plasma coagulation was measured. As a control, aspirin (Sigma Co., USA) was used, and as a solvent control, DMSO was used instead of the sample. […]
The thrombin inhibitory activity was expressed with the average of the results of three or more repeated experiments, and the thrombin inhibitory activity was expressed as the value obtained by dividing the coagulation time upon addition of the sample by the coagulation time upon addition of the solvent control. […]

[3] = system: prothrombin; test: Prothrombin time (plasma coagulation, prothrombin inhibitory activity); format: biochemical; conditions: 1.5 mg/ml; coagulation time of sample added group / DMSO added group
Experimental: as §1
70 μl of standard plasma (MD Pacific Co., China) and 10 μl of sample solutions of various concentrations were added to the tube of Amelung coagulometer KC-1A (Japan) and warmed at 37° C. for 3 minutes, followed by addition of 130 μl of PT reagent. After the addition of the PT reagent, the time until coagulation was measured. The time was expressed with the average value of the results of three repeated experiments. As a control, aspirin (Sigma Co., USA) was used, and as a solvent control, DMSO was used instead of the sample. In the case of DMSO, the coagulation time was 18.1 seconds. The prothrombin inhibitory activity was expressed as the value obtained by dividing the coagulation time upon addition of the sample by the coagulation time of the solvent control. […]

[4] = system: human erythrocytes
Experimental: The hemolytic activity was evaluated according to the previous report (Son Ho-yong, 2014. Korean J. Microbiol. Biotechnol. 42: 285-292). Briefly, 100 μl of human red blood cells washed three times with PBS were placed in a 96-well microplate, 100 μl of sample solution of various concentrations was added thereto, the reaction was performed at 37° C. for 30 minutes, and the reaction solution was centrifuged at 1,500 rpm for 10 minutes, 100 μl of the supernatant was transferred to a new microtiter plate, and the degree of hemoglobin leakage due to hemolysis was measured at 414 nm. DMSO (2%) was used as a solvent control for the sample, and Triton X-100 (1 mg/ml) was used as a control for red blood cell hemolysis. Hemolytic activity was calculated using the following formula:
(%)Hemolysis=[(Abs.S−Abs.C)/(Abs.T−Abs.C)]×100 • Abs.S: Absorbance of sample added group • Abs.C: Absorbance of DMSO added group • Abs.T: Absorbance of Triton X-100 added group

Blood coagulation inhibitory activity, Thrombin time [2] | Human erythrocyte coagulation activity(%) [4] | Compound | Blood coagulation inhibitory activity, aPT time [1] | Blood coagulation inhibitory activity, Prothrombin time [3]
1.45 ± 0.02 | – | CC(=O)Oc1ccccc1C(=O)O [Aspirin, aspirin] | 1.57 ± 0.11 | 1.40 ± 0.00
– | 0.4 ± 0.6% | Triton X-100 | – | –
